Test system: MAPK14 (sprague-dawley rat)
Assay: IL-1 beta-induced P38 Phosphorylation
Settings: astrocyte

Compound | IC50 [µM]
CC(C)(C)/[N+]([O-])=C/c1ccccc1 | 500
CC(=O)N[C@@H](CS)C(=O)O | 500
